Consider 13 compounds from US11339193B2, “CDP protein secretion inhibitors” (KEZAR LIFE SCIENCES, priority 2018, dated 2022).

Structures are written as SMILES. Numbered stars: 1 amine (or outer) side, 2 acyl side, 3 side chain; on linkers, the order of the positions; unused ones are H or OH. Square brackets hold non-standard residues; d marks the D form. Peptide text beside a SMILES is read from it. NMeAla(5-Cl-benzothien-3-yl) = CN[C@@H](Cc1csc2ccc(Cl)cc12)C(=O)O; Ala(1-cyclohexenyl) = N[C@@H](CC1=CCCCC1)C(=O)O; Butanoyl(2R-oxy,4-CN) = N#CCC[C@@H](O)C(=O)O; X22 = CCCC[C@@H](C)C[C@H](N[*:1])C(=O)[*:2]; Abu(4,4,4-F3) = N[C@@H](CC(F)(F)F)C(=O)O; X12 = O=C([C@H](CC1=CCCC1)N[*:1])[*:2]; Ala(cPent) = N[C@@H](CC1CCCC1)C(=O)O; NMeCha = CN[C@@H](CC1CCCCC1)C(=O)O; NMeF = CN[C@@H](Cc1ccccc1)C(=O)O; aIle = CC[C@@H](C)[C@H](N)C(=O)O; Cha = N[C@@H](CC1CCCCC1)C(=O)O; NMeL = CN[C@@H](CC(C)C)C(=O)O; hLeu = CC(C)CC[C@H](N)C(=O)O; NMeA = CN[C@@H](C)C(=O)O; Nle = CCCC[C@H](N)C(=O)O; Nva = CCC[C@H](N)C(=O)O; Abu = CC[C@H](N)C(=O)O

Holding throughout (type): cell-based
In assay [1] the test system is PD1-ss+10aa/Gaussia Luciferase. The assay is described as follows: Dox induced PD1-ss-Gluc assay. Conditions: Flp-In 293 T-REx cells, doxycycline, 24 hours; read-out: PD1ss Gluc IC50. The source says:
Dox Induced PD1-ss-Gluc Assay
(§1) Flp-In 293 T-REx™ cells were transfected with pcDNA™5/FRT/TO plasmid inserted with cDNA encoding Gaussia Luciferase fused to the 3′ end of cDNA encoding PD1 signal sequence plus 10 amino acids (N-[…]-C) (SEQ ID NO:3). Transfected cells were selected for resistance to the selectable markers Hygromycin and Blasticidin to create a stable cell line that contained the PD1-ss+10aa/Gaussia Luciferase cDNA insert whose expression was regulated under the T-REx™ system. The day before assay, cells were trypsinized and plated in 384-well tissue culture plates. The next day, compound dilutions in DMSO/media containing doxycycline were added to the wells and incubated at 37° C., 5% CO2.

Assay [2] has as its system NCI-H929 multiple myeloma cell line. Put plainly: H929 assay (cell viability, Celltiter-Glo). The note with it: Homo sapiens, NCI-H929; 48 hours, cell viability; read-out: H929 EC50. The procedure: The human multiple myeloma cell line NCI-H929 was cultured in Advanced RPMI 1640 media (Gibco@) supplemented with 6% fetal bovine serum, 2 mM Glutamine, and 1× Penicillin/Streptomycin. On the day of assay, cells were resuspended in RPMI 1640 media supplemented with 10% fetal bovine serum, 2 mM Glutamine, and 1× Penicillin/Streptmycin and plated in 384-well tissue culture plates and treated with compound dilutions in DMSO/media. Plates were incubated at 37° C., 5% CO2 for 48 hours. After 48 hours, Celltiter-Glo@ (Promega) was added to each well and luciferase signal was quantified using Tecan Infinite M1000 Pro for cell viability determination.
Background: In ATP-based viability assays light output follows the ATP content of the culture.

Assay [3] relates to TNFα-FL/Gaussia Luciferase. The assay is described as follows: Dox induced TNFα-FL-Gluc assay. The note with it: Flp-In 293 T-REx cells, doxycycline, 24 hours; read-out: TNFa FL Gluc IC50. The source says:
Dox Induced TNFα-FL-Gluc Assay
Flp-In 293 T-REx™ cells were transfected with pcDNA™5/FRT/TO plasmid inserted with cDNA encoding Gaussia Luciferase fused to the 3′ end of cDNA encoding full length TNFα (amino acids 1-233). Transfected cells were selected for resistance to the selectable markers Hygromycin and Blasticidin to create a stable cell line that contained the TNFα-FL/Gaussia Luciferase cDNA insert whose expression was regulated under the T-REx™ system. The day before assay, cells were trypsinized and plated in 384-well tissue culture plates. The next day, compound dilutions in DMSO/media containing doxycycline were added to the wells and incubated at 37° C., 5% CO2.

Assay [4] has as its system Prl-ss+10aa/Gaussia Luciferase. The assay is described as follows: Prl-ss-Gluc assay (constitutively active or 24 hr Dox inducible). Conditions: Flp-In 293 T-REx cells, 24 hours; read-out: Prl IC50.
Source text: Constitutively Active Prl-ss-Gluc Assay
Flp-In 293 T-REx™ cells were transfected with pcDNA™5/FRT plasmid inserted with cDNA encoding Gaussia Luciferase fused to the 3′ end of cDNA encoding Prl signal sequence plus 10 amino acids (N-[…]-C) (SEQ ID NO:4). Transfected cells were selected for resistance to the selectable markers Hygromycin and Blasticidin to create a stable cell line that constitutively expressed the Prlss+10aa/Gaussia Luciferase fusion protein. The day before assay, cells were trypsinized and plated in 384-well tissue culture plates. The next day, culture media was removed from the wells and replaced with fresh media. Compound dilutions in DMSO/media were added to the wells and incubated at 37° C., 5% CO2.
24 hr Dox Inducible Prl-ss-Gluc Assay
as §1, with “Prl” for “PD1”, “NO:5).” for “NO:3).”, “Prl-ss+10aa/Gaussia” for “PD1-ss+10aa/Gaussia”

Another assay deals with HER3ss-Gluc. Put plainly: HER3ss assay. The note with it: HEK-293T T-rex cells, transient transfection, doxycycline, 24 h; read-out: HER3 ss IC50. The procedure: The mature domain of secreted luciferase from Gaussia princeps (GLuc) was cloned into pcDNA5/FRT/TO. The signal sequence plus four amino acids of the mature domain from HER3 ([…]) (SEQ ID NO:8) were cloned upstream of GLuc mature domain and used in transient transfection experiment. HEK-293T T-rex cells were cultured in Dulbecco's modified Eagle's medium with 10% FBS at 5% CO2. Cells were plated 1×10e6 cells per well in a 6-well plate and incubated for 6 h. Cells were transiently transfected with HER3ss-Gluc using Lipofectamine 2000 (Invitrogen). After overnight incubation, transfected cells were replated in a clear-bottomed, black 96-well plate at a density of 20,000 cells per well. Six hours after plating, the cells were treated with doxycycline (1 μg/ml) and increasing concentrations of the indicated compounds for 24 h. Secreted luciferase in the conditioned media was quantified by luminescence using the BioLux Gaussia Luciferase Assay Kit (New England Biolabs, Ipswich, Mass., USA) and a SpectraMax M5 plate reader (Molecular Devices).

As usually defined, the IC50 is the concentration needed to halve the response being measured. What is called EC50 is the midpoint of the concentration-response curve. Regarding `CCCC[C@@H](C)C[C@@H]1NC(=O)[C@@H](CCC#N)OC(=O)[C@H](C)N(C)C(=O)[C@H](CC(F)(F)F)NC(=O)[C@H](Cc2ccccc2)N(C)C(=O)[C@H](CC(C)C)NC(=O)[C@H](CC(C)C)N(C)C1=O` [C-26] (cyclo(L[NMeF][Abu(4,4,4-F3)][NMeA][Butanoyl(2R-oxy,4-CN)][X22][NMeL])), the IC50 in assay [1] came out at 59 nM; in assay [3] it was 92 nM. Besides, the EC50 in assay [2] is 1010 nM.

As to `CCCC[C@@H](C)C[C@@H]1NC(=O)[C@H](CC2CCCCC2)N(C)C(=O)[C@H](CC)NC(=O)[C@H](CC(C)C)N(C)C(=O)[C@H](C[C@H](C)CCCC)NC(=O)[C@@H](CCC#N)OC(=O)[C@H](C)N(C)C1=O` [C-43] (cyclo([Abu][NMeCha][X22][NMeA][Butanoyl(2R-oxy,4-CN)][X22][NMeL])), the results for the IC50 in assay [1], in assay [4] and in assay [3] were 67 nM, 1530 nM and 211 nM, respectively. In addition, the concentration giving a half-maximal response (EC50) in assay [2] was 593 nM.

For `CCCC[C@@H](C)C[C@@H]1NC(=O)[C@H](CC2CCCCC2)N(C)C(=O)[C@H](CCC)NC(=O)[C@H](CC(C)C)N(C)C(=O)[C@H](C[C@H](C)CCCC)NC(=O)[C@@H](CCC#N)OC(=O)[C@H](C)N(C)C1=O` [C-44] (cyclo([NMeA][Butanoyl(2R-oxy,4-CN)][X22][NMeL][Nva][NMeCha][X22])), the 50% inhibitory concentration (IC50) in assay [1] was 37 nM; in assay [4], 740 nM; in assay [3] it was 109 nM. Moreover, the EC50 in assay [2] came to 376 nM.

Consider `CCCC[C@@H](C)C[C@@H]1NC(=O)[C@H](CC2CCCCC2)N(C)C(=O)[C@H](CC(C)C)NC(=O)[C@H](CC(C)C)N(C)C(=O)[C@H](CC2CCCCC2)NC(=O)[C@@H](CCC#N)OC(=O)[C@H](C)N(C)C1=O` [C-45] (cyclo([Cha][NMeL]L[NMeCha][X22][NMeA][Butanoyl(2R-oxy,4-CN)])), for which the half-maximal inhibitory concentration (IC50) in assay [1] amounted to 248 nM; in assay [4], 2500 nM; in assay [3], 911 nM. The concentration giving a half-maximal response (EC50) in assay [2] came to 4910 nM.

For the compound `CCCC[C@@H](C)C[C@@H]1NC(=O)[C@H](CC2CCCCC2)N(C)C(=O)[C@H](CC(C)C)NC(=O)[C@H](CC(C)C)N(C)C(=O)[C@H](CC2CCCC2)NC(=O)[C@@H](CCC#N)OC(=O)[C@H](C)N(C)C1=O` [C-47] (cyclo([Ala(cPent)][NMeL]L[NMeCha][X22][NMeA][Butanoyl(2R-oxy,4-CN)])), the IC50 in assay [1] came out at 367 nM; in assay [3] it was 1130 nM. For the same compound, the 50% effective concentration (EC50) in assay [2] came to 6960 nM.

In the case of `CCCC[C@@H](C)C[C@@H]1NC(=O)[C@H](CC2CCCCC2)N(C)C(=O)[C@H](CC(C)C)NC(=O)[C@H](CC(C)C)N(C)C(=O)[C@H](CCCC)NC(=O)[C@@H](CCC#N)OC(=O)[C@H](C)N(C)C1=O` [C-53] (cyclo(L[NMeCha][X22][NMeA][Butanoyl(2R-oxy,4-CN)][Nle][NMeL])), the IC50 was determined as 495 nM in assay [1] and 1560 nM in assay [3]. Further, the concentration giving a half-maximal response (EC50) in assay [2] is 5860 nM.

`CCCC[C@@H](C)C[C@@H]1NC(=O)[C@H](CC2CCCCC2)N(C)C(=O)[C@H](CC(C)C)NC(=O)[C@H](CC(C)C)N(C)C(=O)[C@H](CC2=CCCC2)NC(=O)[C@@H](CCC#N)OC(=O)[C@H](C)N(C)C1=O` [C-55] (cyclo(L[NMeCha][X22][NMeA][Butanoyl(2R-oxy,4-CN)][X12][NMeL])): the IC50 in assay [1] amounted to 119 nM; in assay [3], 464 nM. Besides, the concentration giving a half-maximal response (EC50) in assay [2] worked out at 1870 nM.

Regarding `CCCC[C@@H](C)C[C@@H]1NC(=O)[C@H](CC2CCCCC2)N(C)C(=O)[C@H](CC(C)C)NC(=O)[C@H](CC(C)C)N(C)C(=O)[C@H](CC2=CCCCC2)NC(=O)[C@@H](CCC#N)OC(=O)[C@H](C)N(C)C1=O` [C-56] (cyclo(L[NMeCha][X22][NMeA][Butanoyl(2R-oxy,4-CN)][Ala(1-cyclohexenyl)][NMeL])), the half-inhibitory concentration (IC50) in assay [1] was 94 nM; in assay [3], 238 nM. In assay [2], the EC50 worked out at 1650 nM.

`CCCC[C@@H](C)C[C@@H]1NC(=O)[C@H](CC2CCCCC2)N(C)C(=O)[C@H](CC(C)C)NC(=O)[C@H](CC(C)C)N(C)C(=O)[C@H](CCC(C)C)NC(=O)[C@@H](CCC#N)OC(=O)[C@H](C)N(C)C1=O` [C-60] (cyclo(L[NMeCha][X22][NMeA][Butanoyl(2R-oxy,4-CN)][hLeu][NMeL])): the IC50 in assay [1] turned out to be 335 nM; in assay [3] it was 1120 nM. The 50% effective concentration (EC50) in assay [2] was determined as 4730 nM.

Consider `CCCC[C@@H](C)C[C@@H]1NC(=O)[C@H](CC2CCCCC2)N(C)C(=O)[C@H](CC(C)C)NC(=O)[C@H](CC(C)C)N(C)C(=O)[C@H]([C@@H](C)CC)NC(=O)[C@@H](CCC#N)OC(=O)[C@H](C)N(C)C1=O` [C-61] (cyclo(I[NMeL]L[NMeCha][X22][NMeA][Butanoyl(2R-oxy,4-CN)])), for which the IC50 in assay [1] was 392 nM; in assay [3], 1890 nM. Besides, the EC50 in assay [2] was 4560 nM.

Consider `CCCC[C@@H](C)C[C@@H]1NC(=O)[C@H](CC2CCCCC2)N(C)C(=O)[C@H](CC(C)C)NC(=O)[C@H](CC(C)C)N(C)C(=O)[C@H]([C@H](C)CC)NC(=O)[C@@H](CCC#N)OC(=O)[C@H](C)N(C)C1=O` [C-62] (cyclo(L[NMeCha][X22][NMeA][Butanoyl(2R-oxy,4-CN)][aIle][NMeL])), for which the IC50 in assay [1] worked out at 277 nM; in assay [3] it was 1660 nM. Further, the EC50 in assay [2] was found to be 4220 nM.

Regarding `CC(C)C[C@@H]1NC(=O)[C@H](Cc2ccc3ccccc3c2)N(C)C(=O)[C@H](CC(C)C)NC(=O)[C@H](CC(C)C)N(C)C(=O)[C@H](CC(C)C)NC(=O)[C@@H](CCC#N)OC(=O)[C@H](C)N(C)C1=O` [C-66] (HELM PEPTIDE1{L.[CN([C@@H](Cc1ccc2ccccc2c1)C(=O)[*:2])[*:1]].L.[meA].[N#CCC[C@@H](O[*:1])C(=O)[*:2]].L.[meL]}$PEPTIDE1,PEPTIDE1,1:R1-7:R2$$$V2.0), the half-maximal inhibitory concentration (IC50) in assay [1] is 1040 nM; in assay [3] it was 2800 nM. Further, the EC50 in assay [2] is 8800 nM.

On to `CC(C)C[C@@H]1NC(=O)[C@H](Cc2csc3ccc(Cl)cc23)N(C)C(=O)[C@H](CC(C)C)NC(=O)[C@H](CC(C)C)N(C)C(=O)[C@H](CC(F)(F)F)NC(=O)[C@@H](CCC#N)OC(=O)[C@H](C)N(C)C1=O` [C-67] (cyclo(L[NMeA][Butanoyl(2R-oxy,4-CN)][Abu(4,4,4-F3)][NMeL]L[NMeAla(5-Cl-benzothien-3-yl)])), for which the figures for the IC50 (in assay [1]; in assay [3]; in the assay on HER3ss-Gluc) were 397 nM, 754 nM and 9 nM, respectively. The EC50 in assay [2] came out at 4090 nM.
